Laboratory results from PMC8243516, “Inhibition of lysosomal phospholipase A2 predicts drug-induced phospholipidosis” (Journal of Lipid Research, 2021).
Where two headings read alike, the source gives them in different places.

Tests used:
[1] = test system: phospholipidosis; conditions: phospholipidosis reported in vitro; Refs of Table 1; cited from earlier work
[2] = test system: phospholipidosis; conditions: phospholipidosis reported in vivo, species codes; Refs of Table 1; cited from earlier work
[3] = target: T1, recombinant mouse LPLA2 (PLA2G15) (Mus musculus, UniProt Q8VEB4); experiment: Transacylase activity of LPLA2 (1-O-acyl-N-acetylsphingosine synthase, cell-free liposome assay); type: biochemical
T1 construct: purchased Proteos Inc. (Kalamazoo, MI)
T1 sequence (Q8VEB4 34-412): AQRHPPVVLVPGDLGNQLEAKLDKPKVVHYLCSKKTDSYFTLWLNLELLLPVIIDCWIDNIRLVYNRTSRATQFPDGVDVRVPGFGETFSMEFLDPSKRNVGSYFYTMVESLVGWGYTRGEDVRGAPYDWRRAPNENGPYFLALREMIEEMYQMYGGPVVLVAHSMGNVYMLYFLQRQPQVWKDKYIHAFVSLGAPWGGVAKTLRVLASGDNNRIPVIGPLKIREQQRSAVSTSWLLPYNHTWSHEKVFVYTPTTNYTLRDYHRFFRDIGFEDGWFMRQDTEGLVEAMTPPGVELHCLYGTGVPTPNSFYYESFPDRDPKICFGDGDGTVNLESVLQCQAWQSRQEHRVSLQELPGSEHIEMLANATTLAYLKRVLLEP

[4] = target: T2, LPLA2 (Mus musculus, UniProt Q8VEB4); experiment: LPLA2 thermal stability measurement (SYPRO Orange Tm); type: binding
T2 construct: purchased Proteos Inc. (Kalamazoo, MI)
T2 sequence (Q8VEB4 34-412): T1 sequence (Q8VEB4 34-412)

[5] = cited from earlier work
[6] = test system: MDCK cells; experiment: Screening phospholipidosis assay (LipidTOX Red / NucBlue Live fluorescence ratio); conditions: LipidTOX Red to NucBlue Live fluorescence ratio, 24 h, 15 μM
[7] = ref Pubchem and chEMBL databases
[8] = 1-O-acyl N-acetylsphingosine synthase activity, pH 4.5, DOPC/sulfatide liposomes, read-out: LPLA2 IC50
[9] = LPLA2 dependent 1-O-acyl N-acetylsphingosine synthase activity, read-out: LPLA2 IC50
[10] = ref Pubchem and chEMBL database

Structure (SMILES)	In Vitro PLD [1]	In Vivo PLD [2]	pKa (basic) [5, 7]	Ratio (15 μM) [6]	IC50 [3, 8] [µM]	(ΔTm)c-(ΔTm)d, difference in melting temperature of LPLA2 alone or in the presence of drug ([4]; N=3 ± SD) [°C]	further results
CCCCc1oc2ccccc2c1C(=O)c1cc(I)c(OCCN(CC)CC)c(I)c1 [Amiodarone, {2-[4-(2-butyl-1-benzofuran-3-carbonyl)-2,6-diiodophenoxy]ethyl} diethyl amine]	Yes	H,R	–	–	–	–	–
CCc1oc2ccccc2c1C(=O)c1cc(Br)c(O)c(Br)c1 [Benzbromarone, 2,6-dibromo-4-(2-ethyl-1-benzofuran-3-carbonyl)phenol]	Yes	–	-3.8	0.5	–	–	IC50 ([3]; LPLA2 IC50, 1-O-acyl N-acetylsphingosine synthase activity, pH 4.5, DOPC/sulfatide liposomes): 3.8 µM; (ΔTm)c-(ΔTm)d, difference in melting temperature of LPLA2 alone or in the presence of drug [4]: -1.40 ± 0.3 °C
CCC[C@@H]1C[C@@H](C(=O)NC(C(C)Cl)[C@H]2O[C@H](SC)[C@H](O)[C@@H](O)[C@H]2O)N(C)C1 (stereo partly drawn) [Clindamycin, (2S,4R)-N-{2-chloro-1-[(2R,3R,4S,5R,6R)-3,4,5-trihydroxy-6-(methylsulfanyl)oxan-2-yl]propyl}-1-methyl-4-propylpyrrolidine-2-carboxamide]	Yes	Yes	–	–	–	–	–
COc1ccc(C(=O)Nc2ccccc2CCC2CCCCN2C)cc1 (stereo not shown) [Encainide, 4-methoxy-N-{2-[2-(1-methylpiperidin-2-yl)ethyl]phenyl} benzamide]	Yes	–	9.41	0.23	76.1	-0.76 ± 0.1	–
CNCCC(Oc1ccc(C(F)(F)F)cc1)c1ccccc1 (stereo not shown) [Fluoxetine, methyl({3-phenyl-3-[4-(trifluoromethyl)phenoxy]propyl}) amine]	Yes	H,R,M	–	–	–	–	–
OCCOCCN1CCN(C(c2ccccc2)c2ccc(Cl)cc2)CC1 (stereo not shown) [Hydroxyzine, 2-(2-{4-[(4-chlorophenyl) (phenyl)methyl]piperazin-1-yl}ethoxy)ethan-1-ol]	–	R	7.82	–	63	-0.10 ± 0.0	–
CNCCCC12CCC(c3ccccc31)c1ccccc12 [Maprotiline, methyl(3-{tetracyclo [6.6.2.0^2,^7.0^9,^14]hexadeca-2,4,6,9,11, 13-hexaen-1-yl}propyl)amine]	–	R	10.54	–	–	–	–
Fc1ccc([C@@H]2CCNC[C@H]2COc2ccc3c(c2)OCO3)cc1 [Paroxetine, (3S,4R)-3-[(2H-1,3-benzodioxol-5-yloxy)methyl]-4-(4-fluorophenyl)piperidine]	–	R	–	–	5.12	–	–
C=C[C@H]1C[N@@]2CC[C@H]1C[C@H]2[C@H](O)c1ccnc2ccc(OC)cc12 [Quinine, (R)-[(1S,2S,4S,5R)-5-ethenyl-1-azabicyclo [2.2.2]octan-2-yl](6-methoxyquinolin-4-yl)methanol]	–	Yes	–	–	164	-1.00 ± 0.1	–
CCN1CCCC1CNC(=O)c1cc(S(N)(=O)=O)ccc1OC (stereo not shown) [Sulpiride, N-[(1-ethylpyrrolidin-2-yl)methyl]-2-methoxy-5-sulfamoylbenzamide]	–	Yes	8.4	–	–	1.34 ± 0.9	LPLA2 inhibition (in words) ([3]; acyl transferase activity): no inhibitory activity
CN1CCN(CCCN2c3ccccc3Sc3ccc(C(F)(F)F)cc32)CC1 [Trifluoperazine]	–	–	–	0.81	–	–	IC50 [3, 9]: 6.87 µM; (ΔTm)c-(ΔTm)d, difference in melting temperature of LPLA2 alone or in the presence of drug [4]: 0.49 ± 0.3 °C; pKa (basic) [5, 10]: 8.39
Cc1cc(C(C)(C)C)cc(C)c1CC1=NCCN1 [Xylometazoline]	–	–	–	0.16	–	0.66 ± 0.0	IC50 [3, 9]: 44.3 µM; pKa (basic) [5, 10]: 10.29
CC[C@H](NC(=O)c1c(C)c(-c2ccccc2)nc2ccccc12)c1ccccc1 [sb222200]	–	–	–	0.34	–	-1.20 ± 0.1	IC50 [3, 9]: 14.9 µM; pKa (basic) [5, 10]: 9.57
